Where two headings read alike, the source gives them in different places.

Assay [1] has as its target T1, cGMP-PDE (Homo sapiens, UniProt O76074).
T1 construct: Separation and partial purification of PDE (phosphodiesterase) from human platelets; from tissue; host or cells: human platelets (supernatant, DEAE-cellulose FI fraction)
The assay is described as follows: Activity for inhibiting cGMP PDE (PDE partially purified from human platelets, FI fraction). It is filed as biochemical. Conditions: 0.4 μM of [3H]-cGMP. The protocol:
(1) Measurement of the Activity for Inhibiting cGMP PDE
Separation and partial purification of PDE (phosphodiesterase) from human platelets, and measurement of the activity for inhibiting cGMP PDE were conducted by the method of Hidaka, et al. [Biochimica et Biophysica Acta, Vol. 429, (1976), pp. 485-497]. The platelets obtained from human healthy adult were washed, and suspended in TRIS-buffer solution, then said suspension was treated by centrifugal separation, the supernatant was subjected to a DEAE-cellulose treatment and fractionated into FI to FIII fractions by a method of concentration gradient of sodium acetate. Thus obtained FI fraction was used as the sample of cGMP-PDE. The activity for inhibiting cGMP-PDE was measured by using 0.4 μM of [^3 H]-cGMP.

Assay [2] has as its system rat A10 cells. The assay is described as follows: Activity for inhibiting proliferation of rat A10 cells ([3H]-thymidine uptake). It is filed as cell-based. The conditions noted are these: read-out: Activity for inhibiting proliferation of rat A10 cells [IC50 (μM)]. On the procedure: (2) Measurement of the Activity for Inhibiting Proliferation of Rat A10 Cells
(§1) Test was conducted by the modified method of N. Morisaki [Atherosclerosis, Vol. 71, (1988), pp. 165-171]. The rat A10 cells (purchased from Dainippon Pharmaceutical Co., Ltd.) were inoculated on a 24 wells immunoplate at a density of 10,000 cells/well, and were cultured in 10% FBS (fetal bovine serum) for 2 days, and in order to introduce the cells into the resting stage, the cells were further cultured in a serum-free medium for 2 days. After that, 1% FBS was added thereto for stimulating the proliferation, of the cells and at the same time, a test compound and 0.5 μCi/well of [^3 H]-thymidine were added. As to the index of synthesized amount of DNA, the quantity of [^3 H]-thymidine being uptaken by the cells was measured at the time of 24 hours after the final cultivation was started.

For assay [3], the system named is human fibroblast. The assay is described as follows: Activity for inhibiting proliferation of the human fibroblast ([3H]-thymidine uptake). It is filed as cell-based. The protocol: as §1
(3) Measurement of the Activity for Inhibiting Proliferation of the Human Fibroblast
Similar to the activity for inhibiting proliferation of rat A10 cells as mentioned above, the activity for inhibiting proliferation of the human fibroblast (purchased from Dainippon Pharmaceutical Co., Ltd.) was determined by measuring the uptake amount of [^3 H]-thymidine.

Where [4] appears, read: A10, 1% FBS stimulation, 24 hours.

Consider `O=C(NCCCn1ccc2cc(NC(=O)c3nc4ccc(Cl)cc4n3Cc3ccccc3)ccc21)c1cccnc1` [Example 11, 1-benzyl-6-chloro-2-{1-[3-(pyridin-3-ylcarbonylamino)propyl]indol-5-ylaminocarbonyl}benzimidazole], for which the results for the IC50 in assay [1] and in assay [2] (setting [4]) were 0.01 µM and 0.97 µM, respectively.

On to `O=C(Nc1ccc2[nH]c(=O)ccc2c1)c1nc2ccc(Cl)cc2n1Cc1ccccc1` [Example 46, 1-benzyl-6-chloro-2-[2(1H)-quinolinon-6-ylamino-caronyl]benzimidazole], for which the IC50 in assay [1] was below 0.01 µM.

Consider `C=CCN1C(=O)CCc2cc(NC(=O)c3nc4ccc(Cl)cc4n3Cc3ccccc3)ccc21` [Example 42], for which the values for the IC50 in assay [1] and in assay [2] (setting [4]) were 0.1 µM and 0.95 µM, respectively.

`O=C(Nc1ccc2[nH]ncc2c1)c1nc2ccc(Cl)cc2n1Cc1ccccc1` [Example 21]: in assay [1], the IC50 came to 0.02 µM.

For `O=C(NCCCN1CCc2cc(NC(=O)c3nc4ccc(Cl)cc4n3Cc3ccccc3)ccc21)c1ccc[nH]1` [Example 28], in assay [1], the IC50 is below 0.01 µM.

On to `O=C(NCCCN1CCOc2cc(NC(=O)c3nc4ccc(Cl)cc4n3Cc3ccccc3)ccc21)c1ccccn1` [Example 47], for which the IC50 in assay [1] was below 0.01 µM; in assay [2] (setting [4]), 0.67 µM; in assay [3], 21 nM.

For `CN(C)CCN(C)CCCN1C(=O)CCc2cc(NC(=O)c3nc4ccc(Cl)cc4n3Cc3ccccc3)ccc21` [Example 44], the IC50 in assay [1] worked out at 0.014 µM.

In the case of `O=C(Nc1ccc2c(c1)CCN2CCCN1CCC(O)(c2ccccc2)CC1)c1nc2ccc(Cl)cc2n1Cc1ccccc1` [Example 20], the IC50 in assay [1] is 0.01 µM; in assay [2] (A10, 24 h), 0.85 µM.

In the case of `Cc1noc(C)c1C(=O)NCCCN1CCc2cc(NC(=O)c3nc4ccc(Cl)cc4n3Cc3ccccc3)ccc21` [Example 33], the IC50 in assay [1] is below 0.01 µM; in assay [2] (setting [4]) it was 1.27 µM; in assay [3], 42 nM.

As to `CC(C)n1nnnc1CN1C(=O)CCc2cc(NC(=O)c3nc4ccc(Cl)cc4n3Cc3ccccc3)ccc21` [Example 45], in assay [3], the IC50 was determined as 41 nM.

`O=C1CCc2cc(NC(=O)c3nc4ccc(Cl)cc4n3Cc3ccccc3)ccc2N1` [Example 41, 1-benzyl-6-chloro-2-(3,4-dihydro-2(1H)-quinolinon-6-ylaminocarbonyl)benzimidazole] came in with an IC50 in assay [1] of 0.02 µM.

Regarding `Cc1noc(C)c1C(=O)NCCCn1ccc2cc(NC(=O)c3nc4ccc(Cl)cc4n3Cc3ccccc3)ccc21` [Example 12], the IC50 in assay [2] (setting [4]) came out at 0.69 µM.

Turning to `O=C(Nc1ccc2c(ccn2CCCn2cccn2)c1)c1nc2ccc(Cl)cc2n1Cc1ccccc1` [Example 6], in assay [2] (setting [4]), the IC50 stood at 0.66 µM.

`O=C(Nc1ccc2[nH]ccc2c1)c1nc2ccc(Cl)cc2n1Cc1ccccc1` [Example 2]: the IC50 in assay [1] was 0.02 µM; in assay [2] (A10, 24 h), 0.4 µM.

As to `CC(C)c1nccn1CCCn1ccc2cc(CNC(=O)c3nc4ccc(Cl)cc4n3Cc3ccccc3)ccc21` [Example 18], the IC50 in assay [2] (setting [4]) was determined as 0.48 µM.

Turning to `COC(=O)n1ccc2cc(NC(=O)c3nc4ccc(Cl)cc4n3Cc3ccccc3)ccc21` [Example 9], the IC50 in assay [1] was found to be 0.08 µM.

With `CN(CCCn1ccc2cc(NC(=O)c3nc4ccc(Cl)cc4n3Cc3ccccc3)ccc21)C1CCCCC1` [Example 4], the IC50 in assay [1] was determined as 0.06 µM; in assay [2] (setting [4]) it was 0.3 µM.

In assay [3], `CC(C)n1nnnc1Cn1ccc2cc(NC(=O)c3nc4ccc(Cl)cc4n3Cc3ccccc3)ccc21` [Example 16] gave an IC50 of 49 nM.

Turning to `O=C(Nc1ccc2c(ccn2CCCn2cncn2)c1)c1nc2ccc(Cl)cc2n1Cc1ccccc1` [Example 7], in assay [2] (setting [4]), the IC50 stood at 0.49 µM.

`N#Cc1cccc(OCCCn2ccc3cc(NC(=O)c4nc5ccc(Cl)cc5n4Cc4ccccc4)ccc32)c1` [Example 25] came in with an IC50 in assay [1] of 0.12 µM.

For the origin of these results see patent publication US5998437A, “Benzimidazole derivatives” (Otsuka Pharmaceutical Co., Ltd., priority 1995, dated 1999).
